According to publication PMC4515243, “Phase 1 pharmacokinetic study of the oral pan-AKT inhibitor MK-2206 in Japanese patients with advanced solid tumors” (Cancer Chemotherapy and Pharmacology, 2015):

Tested on: Japanese patients with advanced solid tumors
Assay: phase 1 safety and tolerability (DLT, adverse events) in Japanese patients;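 also: toxicities graded by NCI CTCAE version 3.0, treatment given until disease progression or unacceptable toxicity, three to nine patients enrolled per dose level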
[1] = 60 mg QOD, grade 3 mucosal inflammation

From the text: Treatment was continued until disease progression or the occurrence of an unacceptable toxicity.
A minimum of three and up to nine patients were enrolled at each dose level based on the toxicity probability intervals [9].
Adverse events were graded using the National Cancer Institute Common Terminology Criteria for Adverse Events, version 3.0.

NC1(c2ccc(-c3nc4ccn5c(=O)[nH]nc5c4cc3-c3ccccc3)cc2)CCC1 [MK-2206]
ALT increased, drug-related adverse event, patients (45 mg QOD (n = 3), All grades): 0
Blood creatinine increased, drug-related adverse event, patients (45 mg QOD (n = 3), All grades): 1
Decreased appetite, drug-related adverse event, patients (45 mg QOD (n = 3), All grades): 1
Diarrhea, drug-related adverse event, patients (45 mg QOD (n = 3), All grades): 1
Dry skin, drug-related adverse event, patients (45 mg QOD (n = 3), All grades): 2
Eosinophil count increased, drug-related adverse event, patients (45 mg QOD (n = 3), All grades): 0
Eosinophilia, drug-related adverse event, patients (45 mg QOD (n = 3), All grades): 2
Erythema multiforme, drug-related adverse event, patients (45 mg QOD (n = 3), All grades): 0
Fatigue, drug-related adverse event, patients (45 mg QOD (n = 3), All grades): 1
HbA1C increased, drug-related adverse event, patients (45 mg QOD (n = 3), All grades): 0
Hyperglycemia, drug-related adverse event, patients (45 mg QOD (n = 3), All grades): 1
Hypernatremia, drug-related adverse event, patients (45 mg QOD (n = 3), All grades): 0
Hypoalbuminemia, drug-related adverse event, patients (45 mg QOD (n = 3), All grades): 0
Hypokalemia, drug-related adverse event, patients (45 mg QOD (n = 3), All grades): 0
Insulin c-peptide increased, drug-related adverse event, patients (45 mg QOD (n = 3), All grades): 2
Leukopenia, drug-related adverse event, patients (45 mg QOD (n = 3), All grades): 2
Localized edema, drug-related adverse event, patients (45 mg QOD (n = 3), All grades): 0
Lymphopenia, drug-related adverse event, patients (45 mg QOD (n = 3), All grades): 2
Nausea, drug-related adverse event, patients (45 mg QOD (n = 3), All grades): 0
Neutropenia, drug-related adverse event, patients (45 mg QOD (n = 3), All grades): 2
Palmar-plantar erythrodysaesthesia syndrome, drug-related adverse event, patients (45 mg QOD (n = 3), All grades): 1
Pruritus, drug-related adverse event, patients (45 mg QOD (n = 3), All grades): 1
Pyrexia, drug-related adverse event, patients (45 mg QOD (n = 3), All grades): 1
Rash, drug-related adverse event, patients (45 mg QOD (n = 3), All grades): 3
Stomatitis, drug-related adverse event, patients (45 mg QOD (n = 3), All grades): 2
Vomiting, drug-related adverse event, patients (45 mg QOD (n = 3), All grades): 0
ALT increased, drug-related adverse event, patients (45 mg QOD (n = 3), Grades 3–5): 0
Blood creatinine increased, drug-related adverse event, patients (45 mg QOD (n = 3), Grades 3–5): 0
Decreased appetite, drug-related adverse event, patients (45 mg QOD (n = 3), Grades 3–5): 0
Diarrhea, drug-related adverse event, patients (45 mg QOD (n = 3), Grades 3–5): 1
Dry skin, drug-related adverse event, patients (45 mg QOD (n = 3), Grades 3–5): 0
Eosinophil count increased, drug-related adverse event, patients (45 mg QOD (n = 3), Grades 3–5): 0
Eosinophilia, drug-related adverse event, patients (45 mg QOD (n = 3), Grades 3–5): 0
Erythema multiforme, drug-related adverse event, patients (45 mg QOD (n = 3), Grades 3–5): 0
Fatigue, drug-related adverse event, patients (45 mg QOD (n = 3), Grades 3–5): 0
HbA1C increased, drug-related adverse event, patients (45 mg QOD (n = 3), Grades 3–5): 0
Hyperglycemia, drug-related adverse event, patients (45 mg QOD (n = 3), Grades 3–5): 0
Hypernatremia, drug-related adverse event, patients (45 mg QOD (n = 3), Grades 3–5): 0
Hypoalbuminemia, drug-related adverse event, patients (45 mg QOD (n = 3), Grades 3–5): 0
Hypokalemia, drug-related adverse event, patients (45 mg QOD (n = 3), Grades 3–5): 0
Insulin c-peptide increased, drug-related adverse event, patients (45 mg QOD (n = 3), Grades 3–5): 0
Leukopenia, drug-related adverse event, patients (45 mg QOD (n = 3), Grades 3–5): 0
Localized edema, drug-related adverse event, patients (45 mg QOD (n = 3), Grades 3–5): 0
Lymphopenia, drug-related adverse event, patients (45 mg QOD (n = 3), Grades 3–5): 2
Nausea, drug-related adverse event, patients (45 mg QOD (n = 3), Grades 3–5): 0
Neutropenia, drug-related adverse event, patients (45 mg QOD (n = 3), Grades 3–5): 1
Palmar-plantar erythrodysaesthesia syndrome, drug-related adverse event, patients (45 mg QOD (n = 3), Grades 3–5): 0
Pruritus, drug-related adverse event, patients (45 mg QOD (n = 3), Grades 3–5): 0
Pyrexia, drug-related adverse event, patients (45 mg QOD (n = 3), Grades 3–5): 0
Rash, drug-related adverse event, patients (45 mg QOD (n = 3), Grades 3–5): 0
Stomatitis, drug-related adverse event, patients (45 mg QOD (n = 3), Grades 3–5): 0
Vomiting, drug-related adverse event, patients (45 mg QOD (n = 3), Grades 3–5): 0
DLTs during Cycle 1 (45 mg QOD, three patients): No DLTs
ALT increased, drug-related adverse event, patients (60 mg QOD (n = 9), All grades): 1
Blood creatinine increased, drug-related adverse event, patients (60 mg QOD (n = 9), All grades): 1
Decreased appetite, drug-related adverse event, patients (60 mg QOD (n = 9), All grades): 1
Diarrhea, drug-related adverse event, patients (60 mg QOD (n = 9), All grades): 5
Dry skin, drug-related adverse event, patients (60 mg QOD (n = 9), All grades): 0
Eosinophil count increased, drug-related adverse event, patients (60 mg QOD (n = 9), All grades): 0
Eosinophilia, drug-related adverse event, patients (60 mg QOD (n = 9), All grades): 6
Erythema multiforme, drug-related adverse event, patients (60 mg QOD (n = 9), All grades): 0
Fatigue, drug-related adverse event, patients (60 mg QOD (n = 9), All grades): 4
HbA1C increased, drug-related adverse event, patients (60 mg QOD (n = 9), All grades): 2
Hyperglycemia, drug-related adverse event, patients (60 mg QOD (n = 9), All grades): 3
Hypernatremia, drug-related adverse event, patients (60 mg QOD (n = 9), All grades): 1
Hypoalbuminemia, drug-related adverse event, patients (60 mg QOD (n = 9), All grades): 2
Hypokalemia, drug-related adverse event, patients (60 mg QOD (n = 9), All grades): 1
Insulin c-peptide increased, drug-related adverse event, patients (60 mg QOD (n = 9), All grades): 7
Leukopenia, drug-related adverse event, patients (60 mg QOD (n = 9), All grades): 2
Localized edema, drug-related adverse event, patients (60 mg QOD (n = 9), All grades): 0
Lymphopenia, drug-related adverse event, patients (60 mg QOD (n = 9), All grades): 5
Nausea, drug-related adverse event, patients (60 mg QOD (n = 9), All grades): 1
Neutropenia, drug-related adverse event, patients (60 mg QOD (n = 9), All grades): 2
Palmar-plantar erythrodysaesthesia syndrome, drug-related adverse event, patients (60 mg QOD (n = 9), All grades): 1
Pruritus, drug-related adverse event, patients (60 mg QOD (n = 9), All grades): 4
Pyrexia, drug-related adverse event, patients (60 mg QOD (n = 9), All grades): 7
Rash, drug-related adverse event, patients (60 mg QOD (n = 9), All grades): 9
Stomatitis, drug-related adverse event, patients (60 mg QOD (n = 9), All grades): 6
Vomiting, drug-related adverse event, patients (60 mg QOD (n = 9), All grades): 0
ALT increased, drug-related adverse event, patients (60 mg QOD (n = 9), Grades 3–5): 0
Blood creatinine increased, drug-related adverse event, patients (60 mg QOD (n = 9), Grades 3–5): 0
Decreased appetite, drug-related adverse event, patients (60 mg QOD (n = 9), Grades 3–5): 0
Diarrhea, drug-related adverse event, patients (60 mg QOD (n = 9), Grades 3–5): 0
Dry skin, drug-related adverse event, patients (60 mg QOD (n = 9), Grades 3–5): 0
Eosinophil count increased, drug-related adverse event, patients (60 mg QOD (n = 9), Grades 3–5): 0
Eosinophilia, drug-related adverse event, patients (60 mg QOD (n = 9), Grades 3–5): 0
Erythema multiforme, drug-related adverse event, patients (60 mg QOD (n = 9), Grades 3–5): 0
Fatigue, drug-related adverse event, patients (60 mg QOD (n = 9), Grades 3–5): 0
HbA1C increased, drug-related adverse event, patients (60 mg QOD (n = 9), Grades 3–5): 0
Hyperglycemia, drug-related adverse event, patients (60 mg QOD (n = 9), Grades 3–5): 0
Hypernatremia, drug-related adverse event, patients (60 mg QOD (n = 9), Grades 3–5): 0
Hypoalbuminemia, drug-related adverse event, patients (60 mg QOD (n = 9), Grades 3–5): 0
Hypokalemia, drug-related adverse event, patients (60 mg QOD (n = 9), Grades 3–5): 0
Insulin c-peptide increased, drug-related adverse event, patients (60 mg QOD (n = 9), Grades 3–5): 0
Leukopenia, drug-related adverse event, patients (60 mg QOD (n = 9), Grades 3–5): 0
Localized edema, drug-related adverse event, patients (60 mg QOD (n = 9), Grades 3–5): 0
Lymphopenia, drug-related adverse event, patients (60 mg QOD (n = 9), Grades 3–5): 2
Nausea, drug-related adverse event, patients (60 mg QOD (n = 9), Grades 3–5): 0
Neutropenia, drug-related adverse event, patients (60 mg QOD (n = 9), Grades 3–5): 0
Palmar-plantar erythrodysaesthesia syndrome, drug-related adverse event, patients (60 mg QOD (n = 9), Grades 3–5): 0
Pruritus, drug-related adverse event, patients (60 mg QOD (n = 9), Grades 3–5): 0
Pyrexia, drug-related adverse event, patients (60 mg QOD (n = 9), Grades 3–5): 0
Rash, drug-related adverse event, patients (60 mg QOD (n = 9), Grades 3–5): 1
Stomatitis, drug-related adverse event, patients (60 mg QOD (n = 9), Grades 3–5): 0
Vomiting, drug-related adverse event, patients (60 mg QOD (n = 9), Grades 3–5): 0
patients with DLT during Cycle 1 [1]: One of the nine
time until the onset of the DLT after the start of treatment [1]: 28 days
DLTs during Cycle 1 (135 mg QW): no DLTs
ALT increased, drug-related adverse event, patients (135 mg QW (n = 3), All grades): 0
Blood creatinine increased, drug-related adverse event, patients (135 mg QW (n = 3), All grades): 0
Decreased appetite, drug-related adverse event, patients (135 mg QW (n = 3), All grades): 1
Diarrhea, drug-related adverse event, patients (135 mg QW (n = 3), All grades): 1
Dry skin, drug-related adverse event, patients (135 mg QW (n = 3), All grades): 1
Eosinophil count increased, drug-related adverse event, patients (135 mg QW (n = 3), All grades): 2
Eosinophilia, drug-related adverse event, patients (135 mg QW (n = 3), All grades): 1
Erythema multiforme, drug-related adverse event, patients (135 mg QW (n = 3), All grades): 0
Fatigue, drug-related adverse event, patients (135 mg QW (n = 3), All grades): 1
HbA1C increased, drug-related adverse event, patients (135 mg QW (n = 3), All grades): 1
Hyperglycemia, drug-related adverse event, patients (135 mg QW (n = 3), All grades): 2
Hypernatremia, drug-related adverse event, patients (135 mg QW (n = 3), All grades): 0
Hypoalbuminemia, drug-related adverse event, patients (135 mg QW (n = 3), All grades): 0
Hypokalemia, drug-related adverse event, patients (135 mg QW (n = 3), All grades): 1
Insulin c-peptide increased, drug-related adverse event, patients (135 mg QW (n = 3), All grades): 2
Leukopenia, drug-related adverse event, patients (135 mg QW (n = 3), All grades): 0
Localized edema, drug-related adverse event, patients (135 mg QW (n = 3), All grades): 0
Lymphopenia, drug-related adverse event, patients (135 mg QW (n = 3), All grades): 0
Nausea, drug-related adverse event, patients (135 mg QW (n = 3), All grades): 1
Neutropenia, drug-related adverse event, patients (135 mg QW (n = 3), All grades): 1
Palmar-plantar erythrodysaesthesia syndrome, drug-related adverse event, patients (135 mg QW (n = 3), All grades): 0
Pruritus, drug-related adverse event, patients (135 mg QW (n = 3), All grades): 0
Pyrexia, drug-related adverse event, patients (135 mg QW (n = 3), All grades): 0
Rash, drug-related adverse event, patients (135 mg QW (n = 3), All grades): 2
Stomatitis, drug-related adverse event, patients (135 mg QW (n = 3), All grades): 0
Vomiting, drug-related adverse event, patients (135 mg QW (n = 3), All grades): 1
ALT increased, drug-related adverse event, patients (135 mg QW (n = 3), Grades 3–5): 0
Blood creatinine increased, drug-related adverse event, patients (135 mg QW (n = 3), Grades 3–5): 0
Decreased appetite, drug-related adverse event, patients (135 mg QW (n = 3), Grades 3–5): 0
Diarrhea, drug-related adverse event, patients (135 mg QW (n = 3), Grades 3–5): 0
Dry skin, drug-related adverse event, patients (135 mg QW (n = 3), Grades 3–5): 0
Eosinophil count increased, drug-related adverse event, patients (135 mg QW (n = 3), Grades 3–5): 0
